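A five-concentration, 48-hour dose response in 96-well plates underlies each endpoint, interpolated linearly between surrounding concentrations. Here, GI50 denotes the concentration required for 50% inhibition of growth. TGI: total growth inhibition.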

The record followed here is PubChem BioAssay (NCI).

Assay in all cases: growth of human tumour cells (NCI), 48 h
The test system of assay [1] is SK-MEL-28 melanoma.
For assay [2], the system named is A498 renal.
For assay [3], the system named is NCI-H522 lung.
Assay [4] deals with SF-295 CNS.
The subject of assay [5] is COLO 205 colon.
Assay [6] concerns SK-MEL-5 melanoma.
The test system of assay [7] is U251 CNS.

In the case of `c1ccc(C2CC(N3CCOCC3)=Nc3ccccc3N2)cc1` (stereo not given), the TGI in assay [1], in assay [2], in assay [3], in assay [4], in assay [5] and in assay [6] was more than 100 µM each time. The compound also showed a TGI in assay [7] of more than 100 µM.

Consider `COC(=O)C(Cc1ccccc1)NS(=O)(=O)c1ccc(-c2c3nc(c(-c4ccc(S(=O)(=O)NC(Cc5ccccc5)C(=O)OC)cc4)c4ccc([nH]4)c(-c4ccc(S(=O)(=O)NC(Cc5ccccc5)C(=O)OC)cc4)c4nc(c(-c5ccc(S(=O)(=O)NC(Cc6ccccc6)C(=O)OC)cc5)c5ccc2[nH]5)C=C4)C=C3)cc1` (stereo not given), for which the TGI in assay [1], in assay [2], in assay [3], in assay [4], in assay [5] and in assay [6] was more than 100 µM each time. Also, in assay [7], the TGI is more than 100 µM.

Consider `COC(=O)c1ccccc1CC1Cc2cc3c(cc2C1)CCC3`, for which the TGI in assay [1] is more than 100 µM; in assay [2], more than 100 µM; in assay [3] it was 91.6 µM; in assay [4], more than 100 µM; in assay [5], 52.7 µM; in assay [6], 55.3 µM. Further, the TGI in assay [7] was more than 100 µM.

For `OC[C@H]1CC(c2nn[nH]n2)[C@H](O)[C@@H]1O` (stereo not given in full), the TGI in assay [1], in assay [2], in assay [3], in assay [4], in assay [5] and in assay [6] was more than 100 µM throughout. The same compound gave a TGI in assay [7] of more than 100 µM.

On to `CC(O[Si](C)(C)C(C)(C)C)[C@H](NC(=O)OCC(Cl)(Cl)Cl)C(=O)O` (stereo not given in full), for which the TGI in assay [1], in assay [2], in assay [3], in assay [4], in assay [5] and in assay [6] was more than 100 µM each time. Further, the TGI in assay [7] was more than 100 µM.

On to `COc1ccc(C2=C(OC(C)=O)c3cccn3-c3ccccc3S2)cc1`, for which the TGI was more than 10 µM in assay [1], 5.03 µM in assay [4], 8.53 µM in assay [5] and more than 10 µM in assay [6].

Regarding `Cn1cc(-c2ccc(CCOC3CCCCO3)cc2)c2c(C#N)cccc21` (stereo not given), the TGI in assay [1] was 42.4 µM; in assay [2], more than 100 µM; in assay [3], more than 100 µM; in assay [4], more than 100 µM; in assay [5] it was 67.5 µM; in assay [6], more than 100 µM. In assay [7], this compound displayed a TGI of more than 100 µM.

In the case of `CC(C)C1OCC(CO)CO1` (stereo not given), the TGI in assay [1], in assay [2], in assay [3], in assay [4], in assay [5] and in assay [6] was more than 100 µM in each case. The compound further showed a TGI in assay [7] of more than 100 µM.

`COc1cc2c[n+](C)c3c4ccccc4ccc3c2cc1OC`: the TGI was 18.1 µM in assay [1]; more than 65.2 µM in assay [2]; 5.57 µM in assay [3]; more than 73.3 µM in assay [4]; 5.6 µM in assay [5]; 12.9 µM in assay [6]. Moreover, the TGI in assay [7] is 10.3 µM.

For the compound `Cc1ccc(C2SC(N)=Nc3c2c(C)nn3C(=O)c2ccncc2)cc1` (stereo not given), the TGI in assay [1], in assay [3], in assay [4], in assay [5], in assay [6] and in assay [7] was more than 10 µM each time.

For `N#Cc1c(N2CCOCC2)ncn(-c2ccccc2)c1=O`, the TGI in assay [1], in assay [2], in assay [4], in assay [5], in assay [6] and in assay [7] was more than 100 µM in each case.

With `CC(C)CCNC(=O)c1ccc(CNC(=O)/C=C/c2ccc(-c3ccccc3[N+](=O)[O-])o2)cc1`, the TGI in assay [1], in assay [4], in assay [5], in assay [6] and in assay [7] was more than 100 µM in each case.

With `CC(C)(C)OC(=O)C1/C(=C/CO)CN1C(=O)OC(C)(C)C` (stereo not given), the TGI in assay [1], in assay [2], in assay [4], in assay [5] and in assay [6] was more than 100 µM throughout.

On to `CCCCc1ccc(Nc2nc(Cl)c3[nH]cnc3n2)cc1`, for which the TGI turned out to be 55.4 µM in assay [2]; 65.3 µM in assay [3]; 34.6 µM in assay [4]; 43.4 µM in assay [5]; 31.6 µM in assay [6].

With `CCCCCCCCCCCCCCCCCCNc1ccn(C2OC(CO)C(OP(=O)(O)OCC3CCC(n4ccc(N)nc4=O)O3)C2O)c(=O)n1` (stereo not given), the TGI in assay [1], in assay [3], in assay [4], in assay [5], in assay [6] and in assay [7] was more than 100 µM throughout.

With `CCNC1CC(C(C)(C)NCC)CC=C1C` (stereo not given), the TGI in assay [1], in assay [3], in assay [4], in assay [5], in assay [6] and in assay [7] was more than 100 µM in each case.

As for `COC(CNC(=O)C(C)NC(=O)C(C)NC(=O)c1ccccc1)OC` (stereo not given), the TGI in assay [3], in assay [4], in assay [5], in assay [6] and in assay [7] was more than 100 µM throughout.

`O=C(c1nsc(Cl)c1Cl)N1CCCCC1`: the TGI in assay [1], in assay [4], in assay [5], in assay [6] and in assay [7] was more than 100 µM each time.

As to `CNC(=O)N(CCC#N)CCN(CCN(C(=O)NC)c1ccccc1)C(=O)NC`, the TGI in assay [1], in assay [3], in assay [4], in assay [5], in assay [6] and in assay [7] was more than 100 µM in each case.

On to `C=CCCCC1(C)CCCCNC1=O` (stereo not given), for which the TGI in assay [1], in assay [2], in assay [4], in assay [5], in assay [6] and in assay [7] was more than 10 µM in each case.

As to `Cc1ccc(S(=O)(=O)n2ccn3c(=O)cc(C)nc23)cc1`, the TGI in assay [1], in assay [2], in assay [4], in assay [5], in assay [6] and in assay [7] was more than 10 µM in each case.

Take `Clc1ccc2c(NCCNc3nc(-c4ccccc4)cc(-c4ccccc4)n3)ccnc2c1`: the GI50 was 1.76 µM in assay [1]; 2.15 µM in assay [2]; 1.87 µM in assay [3]; 1.76 µM in assay [4]; 1.79 µM in assay [6]; 1.96 µM in assay [7]. Further, the TGI came to 3.23 µM in assay [1]; 5.61 µM in assay [2]; 3.76 µM in assay [3]; 3.39 µM in assay [4]; 3.2 µM in assay [6]; 3.59 µM in assay [7].

Take `Cc1cccc(C)c1NC(=S)/N=C/C1=C(O)c2ccccc2C1=O`: the TGI in assay [1] is more than 100 µM; in assay [3], 17.9 µM; in assay [4], more than 100 µM; in assay [5], more than 40.4 µM; in assay [6], 29.3 µM; in assay [7], more than 100 µM.

Consider `C=CCSc1nn(CC=C)cc2ncnc1-2`, for which the TGI in assay [1], in assay [2], in assay [4], in assay [5], in assay [6] and in assay [7] was more than 100 µM throughout.

Take `COc1cc2cc(C(=O)N3CC(COS(C)(=O)=O)c4c3cc([N+](=O)[O-])c3ccccc43)[nH]c2c(OC)c1OC` (stereo not given): the TGI is more than 31.6 µM in assay [1]; 53 µM in assay [2]; more than 31.6 µM in assay [3]; more than 31.6 µM in assay [4]; more than 100 µM in assay [5]; more than 31.6 µM in assay [7].

As for `COc1cc(/C=C2\NC(=O)N(/C=C3\C(=O)Oc4ccccc4C3=O)C2=O)ccc1O`, the TGI in assay [2], in assay [3], in assay [4], in assay [5], in assay [6] and in assay [7] was more than 100 µM throughout.

With `CC(=O)OC1CC(OC2C(O)CC(OC3C(O)CC(OC4CCC5(C)C(CCC6C5CC(O)C5(C)C(C7=CC(=O)OC7)CCC65O)C4)OC3C)OC2C)OC(C)C1O` (stereo not given) (tested in a mixture with another compound), the TGI in assay [2] came to 0.307 µM; in assay [3], 0.0275 µM; in assay [4], 0.133 µM; in assay [5] it was 0.168 µM; in assay [6], 0.0838 µM; in assay [7], 0.0801 µM.

For the compound `C=CCC1(O)c2cccc(O)c2C(=O)c2c(O)cccc21`, the TGI in assay [1] was more than 100 µM; in assay [2], 79.4 µM; in assay [3] it was 75.8 µM; in assay [4] it was more than 100 µM; in assay [6] it was 85.9 µM; in assay [7], 69.1 µM.
